In publication PMC5677254, “Design, Synthesis, and Characterization of N-Oxide-Containing Heterocycles with in Vivo Sterilizing Antitubercular Activity” (Journal of Medicinal Chemistry, 2017):
pIC50: −log10 of the molar value. Converted amounts (≈) assume the structure as drawn. “And” between values parts separate entries of the source, which are not always exact repeats. Identical values can stand only once. Like-named read-outs stand apart in the source and are kept apart here.

What was measured:
Mtb H37Rv (ATCC 27294) [1] = tested on: Mtb H37Rv (ATCC 27294); set-up: method as in PMID 27508879; details: cited from earlier work
[2] = tested on: MRC-5 human lung fibroblast cell line; set-up: method as in PMID 27508879; details: cited from earlier work
Mtb H37Rv (ATCC 27294) [3] = assay: Resazurin microtiter assay (REMA), MIC90 against bacteria in active state; assay type: cell-based; details: Mycobacterium tuberculosis, actively replicating M. tuberculosis H37Rv, REMA; for MIC90: read-out: MIC90
[4] = tested on: dormant M. tuberculosis H37Rv; assay: microbe, parasite or virus in culture; assay type: cell-based; details: Mycobacterium tuberculosis, dormant (nonreplicating) M. tuberculosis H37Rv
[5] = Cytotoxicity against MRC-5 cell line; details: human, cytotoxicity IC50, MRC-5 cell line
[6] = tested on: Escherichia coli (ATCC 25922); assay: Spectrum of activity, OD570 after 16 h; assay type: cell-based; details: ATCC25922, read-out: MIC90 (antimicrobial activity)
Protocol: (§1) Determination of Minimal Inhibitory Concentration (MIC90) Against Bacteria in Dormant […]
(§2) The selective compounds (SI ≥ 10) were tested against the mycobacterium in a dormant state. The cultures were thawed, diluted in Middlebrook 7H12 broth, and sonicated for 5 s. The cultures were diluted to obtain the concentration between […] and 2 × 10^6 CFU/mL. TwoHfold serial dilutions of the compounds were prepared in a volume of […] in white 96Hwell microtiter plates, followed by the addition of […] of the cell suspension. The microplate cultures were placed under anaerobic conditions (oxygen concentration less than 0.16%) by using an Anoxomat model WS8080 (MART Microbiology) followed by two cycles of evacuation and filling with a mixture of 10% hydrogen (H2), 5% carbon dioxide (CO2), and the balance with nitrogen (N2). An anaerobic indicator strip was placed inside the chamber to visually confirm the removal of oxygen. The plates were incubated at 37°C for 10 days and then transferred to an ambient gaseous condition (5% CO2H enriched air) incubator for a 28 h “recovery.” On day 11 (after the 28Hh aerobic recovery), we determined the luminescence and calculated the MIC90.4
(§3) To establish the spectrum activity, we determined the MIC90 against E. coli (ATCC 25922) and S. aureus (ATCC 29213) by measuring the optical density at 570 nm after 16 h of incubation in Mueller–Hinton II broth (Becton Dickinson, Sparks; Maryland, United States) and against C. albicans (ATCC 10231) at OD570 after 48 h in Cellgro RPMI 1640 medium (Mediatech Inc., Manassas, Virginia, United States). The MIC was defined as the lowest concentration resulting in 90% reduction in absorption relative to that of untreated control cultures.
(§4) Determination of Minimal Inhibitory Concentration Against Isogenic Monoresistant Strains

[7] = tested on: Staphylococcus aureus (ATCC 29213); assay: Spectrum of activity, OD570 after 16 h; assay type: cell-based; details: ATCC29213, read-out: MIC90 (antimicrobial activity)
Protocol: as §1, §2, §3, §4

[8] = tested on: Candida albicans (ATCC 10231); assay: Spectrum of activity, OD570 after 48 h; assay type: cell-based; details: ATCC10231, read-out: MIC90 (antimicrobial activity)
Protocol: as §1, §2, §3, §4

SMILES | MIC90 (Mtb H37Rv (ATCC 27294) [3]) [µg/mL] | IC50 [5] [µg/mL] | further results
O=C(N/N=C/c1ccc(Oc2no[n+]([O-])c2S(=O)(=O)c2ccccc2)cc1)c1ccncc1 [(E)-4-(4-((2-isonicotinoylhydrazono)methyl)phenoxy)-3-(phenylsulfonyl)-1,2,5-oxadiazole 2-oxide] | – | – | MIC90 (Mtb H37Rv (ATCC 27294) [1]): 1 µM and 1.0 µM; pIC50 [2]: 4.37
NC(=O)c1c(COc2ccccc2/C=N/NC(=O)c2ccncc2)no[n+]1[O-] [Compound 4a, (E)-3-Carbamoyl-4-((2-((2-isonicotinoylhydrazono)methyl)phenoxy)methyl)-1,2,5-oxadiazole 2-Oxide] | 0.16 (≈ 0.418 µM) | 327 (≈ 854 µM) | MIC90 [4]: 2.95 µg/mL (≈ 7.72 µM)
NC(=O)c1c(COc2cccc(/C=N/NC(=O)c3ccncc3)c2)no[n+]1[O-] [Compound 4b, (E)-3-Carbamoyl-4-((3-((2-isonicotinoylhydrazono)methyl)phenoxy)methyl)-1,2,5-oxadiazole 2-Oxide] | 0.15 (≈ 0.392 µM) | 490 (≈ 1280 µM) | MIC90 [4]: 1.6 µg/mL (≈ 4.18 µM)
NC(=O)c1c(COc2ccc(/C=N/NC(=O)c3ccncc3)cc2)no[n+]1[O-] [Compound 4c, (E)-3-Carbamoyl-4-((4-((2-isonicotinoylhydrazono)methyl)phenoxy)methyl)-1,2,5-oxadiazole 2-Oxide] | 0.16 (≈ 0.418 µM) | 443 (≈ 1160 µM) | MIC90 [4]: 0.78 µg/mL (≈ 2.04 µM)
O=C(N/N=C/c1ccc2no[n+]([O-])c2c1)c1ccccc1 [Compound 9, (E)-6-((2-Benzoylhydrazono)methyl)benzo[c][1,2,5]oxadiazole 1-Oxide] | 2.4 (≈ 8.5 µM) | 36.8 (≈ 130 µM) | –
CC(C)(C)c1ccc(C(=O)N/N=C/c2ccc3no[n+]([O-])c3c2)cc1 [Compound 10, (E)-6-((2-(4-(tert-Butyl)benzoyl)hydrazono)methyl)benzo[c][1,2,5]oxadiazole 1-Oxide] | 1.3 (≈ 3.84 µM) | 8.5 (≈ 25.1 µM) | –
O=C(N/N=C/c1ccc2no[n+]([O-])c2c1)c1ccc([N+](=O)[O-])cc1 [Compound 11, (E)-6-((2-(4-Nitrobenzoyl)hydrazono)methyl)benzo[c][1,2,5]oxadiazole 1-Oxide] | 1.73 (≈ 5.29 µM) | – | MIC (Mtb H37Rv (ATCC 27294) [3]): > 62 µM; MIC90 [6]: > 200 µM; MIC90 [7]: > 200 µM; MIC90 [8]: > 200 µM
O=C(N/N=C/c1ccc2no[n+]([O-])c2c1)c1ccccc1O [Compound 12, (E)-6-((2-(2-Hydroxybenzoyl)hydrazono)methyl)benzo[c][1,2,5]oxadiazole 1-Oxide] | – | – | MIC (Mtb H37Rv (ATCC 27294) [3]): 16.4 µg/mL
O=C(N/N=C/c1ccc2no[n+]([O-])c2c1)c1cccc(O)c1 [Compound 13, (E)-6-((2-(3-Hydroxybenzoyl)hydrazono)methyl)benzo[c][1,2,5]oxadiazole 1-Oxide] | > 25 | – | –
O=C(N/N=C/c1ccc2no[n+]([O-])c2c1)c1ccc(O)cc1 [Compound 14, (E)-6-((2-(4-Hydroxybenzoyl)hydrazono)methyl)benzo[c][1,2,5]oxadiazole 1-Oxide] | > 25 | – | MIC90 [6]: > 200 µM; MIC90 [7]: > 200 µM; MIC90 [8]: > 200 µM
Nc1ccccc1C(=O)N/N=C/c1ccc2no[n+]([O-])c2c1 [Compound 15, (E)-6-((2-(2-Aminobenzoyl)hydrazono)methyl)benzo[c][1,2,5]oxadiazole 1-Oxide] | 3.7 (≈ 12.4 µM) | 36.4 (≈ 122 µM) | –
Nc1cccc(C(=O)N/N=C/c2ccc3no[n+]([O-])c3c2)c1 [Compound 16, (E)-6-((2-(3-Aminobenzoyl)hydrazono)methyl)benzo[c][1,2,5]oxadiazole 1-Oxide] | 5.3 (≈ 17.8 µM) | 24.4 (≈ 82.1 µM) | –
Nc1ccc(C(=O)N/N=C/c2ccc3no[n+]([O-])c3c2)cc1 [Compound 17, (E)-6-((2-(4-Aminobenzoyl)hydrazono)methyl)benzo[c][1,2,5]oxadiazole 1-Oxide] | 3.16 (≈ 10.6 µM) | 250 (≈ 841 µM) | MIC90 [6]: > 200 µM; MIC90 [7]: > 200 µM; MIC90 [8]: > 200 µM
N#Cc1c(-c2ccccc2)[n+]([O-])c2ccc(C3OCCO3)cc2[n+]1[O-] [Compound 19] | 10.3 (≈ 30.7 µM) | 10.7 (≈ 31.9 µM) | –
Cc1ccc(-c2c(C#N)[n+]([O-])c3cc(C4OCCO4)ccc3[n+]2[O-])cc1 [Compound 20, 3-Cyano-6-(1,3-dioxolan-2-yl)-2-(p-tolyl)quinoxaline 1,4-Dioxide] | 5.7 (≈ 16.3 µM) | 6.2 (≈ 17.7 µM) | –
N#Cc1c(-c2ccc(Cl)cc2)[n+]([O-])c2ccc(C3OCCO3)cc2[n+]1[O-] [Compound 21, 2-(4-Chlorophenyl)-3-cyano-6-(1,3-dioxolan-2-yl)quinoxaline 1,4-Dioxide] | 6.4 (≈ 17.3 µM) | 5 (≈ 13.5 µM) | –
COc1ccc(-c2c(C#N)[n+]([O-])c3cc(C4OCCO4)ccc3[n+]2[O-])cc1 [Compound 22, 3-Cyano-6-(1,3-dioxolan-2-yl)-2-(4-methoxyphenyl)quinoxaline 1,4-Dioxide] | 4.4 (≈ 12 µM) | 5.5 (≈ 15.1 µM) | –
N#Cc1c(-c2ccc(F)cc2)[n+]([O-])c2ccc(C3OCCO3)cc2[n+]1[O-] [Compound 23, 3-Cyano-6-(1,3-dioxolan-2-yl)-2-(4-fluorophenyl)quinoxaline 1,4-Dioxide] | 8.6 (≈ 24.3 µM) | 7.7 (≈ 21.8 µM) | –
N#Cc1c(-c2ccc(OC(F)(F)F)cc2)[n+]([O-])c2ccc(C3OCCO3)cc2[n+]1[O-] [Compound 24, 3-Cyano-6-(1,3-dioxolan-2-yl)-2-(4-(trifluoromethoxy)phenyl)quinoxaline 1,4-Dioxide] | 6.5 (≈ 15.5 µM) | 28 (≈ 66.8 µM) | –
N#Cc1c(-c2ccco2)[n+]([O-])c2ccc(C3OCCO3)cc2[n+]1[O-] [Compound 25, 3-Cyano-6-(1,3-dioxolan-2-yl)-2-(furan-2-yl)quinoxaline 1,4-Dioxide] | 1.7 (≈ 5.23 µM) | 11.6 (≈ 35.7 µM) | –
N#Cc1c(-c2cccs2)[n+]([O-])c2ccc(C3OCCO3)cc2[n+]1[O-] [Compound 26, 3-Cyano-6-(1,3-dioxolan-2-yl)-2-(thiophen-2-yl)quinoxaline 1,4-Dioxide] | 4.1 (≈ 12 µM) | 5.9 (≈ 17.3 µM) | –
N#Cc1c(-c2ccccc2)[n+]([O-])c2ccc(/C=N/NC(=O)c3ccncc3)cc2[n+]1[O-] [Compound 28] | 16.3 (≈ 39.7 µM) | 8.6 (≈ 21 µM) | –
NNC(=O)c1ccncc1 [isoniazid, reference compound] | 0.014 (≈ 0.102 µM) | – | –
